Structures are written as SMILES. Where a name gives a salt, the structure may show the parent alone.

Series [1] concerns patients suffering from perennial allergic rhinitis. Briefly: phase III multicenter double-blind 3-week study in perennial allergic rhinitis. The series is classed as in vivo, human. The following applies: for Mean of maximal 5-symptom scores, Visit 2: control visit one week after visit 1, investigators' 4-point scale 0-3; for global evaluation by the investigators: patients in categories "Good improvement" and "No more symptoms", grouped: end of treatment (visit 3), capsule morning and evening, 5-point scale; for Mean of maximal 5-symptom scores, Visit 1: enrolment visit, investigators' 4-point scale 0-3; for PDS0 (percentage of days with a maximal symptom score equal to 0), mean / PDS1 (percentage of days with a maximal symptom score inferior or equal to 1), mean: patients' daily record card, five symptoms, 3-week study. As to the method: (§1) The efficacy and safety of a composition of the invention were evaluated for the treatment of rhinitis, especially perennial and seasonal rhinitis, by the following phase III multicenter, double-blind studies. The composition of the invention was compared to:
(§2) For each study, patients enrolled were ranged in three therapeutic groups and were treated as follows:
(§3) The patients' clinical evaluations made by the investigators at the end of the studies were based on a 5-point scale (0=worsening; 1=no change; 2=slight improvement; 3=good improvement; 4=no more symptoms). The Cochran-Mantel-Haenszel test was used to compare the frequency distribution of the three groups, and for specific comparisons.
(§4) At home, patients had to fill a daily record card where the five following symptoms were evaluated: sneezing, runny nose, blocked nose, itchy nose and itchy eyes. The symptoms scores were based on a 4-point scale (0: absent; 1: mild; 2: moderate; 3: severe). […] Global comparisons were made using the Kruskal-Wallis test and specific comparisons were made with the Wilcoxon rank sum test.
(§5) Three visits were planned during the study: enrolment visit (Visit 1), control visit (Visit 2) one week after visit 1 and final visit (Visit 3). At visits 1 and 2, investigators evaluated the specific symptoms of allergic rhinitis (sneezing, rhinorrhea, nasal obstruction, nasal pruritus and ocular pruritus) using the 4-point scale (0: absent; 1: mild; 2: moderate; 3: severe). The rhinitis severity was evaluated by taking into account the maximal score of the five symptoms. The three groups were compared using the Cochran-Mantel-Haenszel test based on ranks.
(§6) The patients were asked about possible adverse events at each control visit. In each treatment group, adverse events were counted and grouped in classes. The frequency distributions of these adverse effect numbers were compared using the Cochran-Mantel-Haenszel test.
A total of 554 patients were enrolled in this 3-week study. These patients ranged in age from 12 to 67 years old. They had to suffer from perennial allergic rhinitis diagnosed at least one year prior to the study, with radio allergosorbent test (RAST) or prick-test positive to perennial allergens including dust, mites and/or animal danders. On enrolment day, patients had to have the following symptoms: nasal obstruction, sneezing and rhinorrhea.

Series [2] deals with patients suffering from pollen-associated allergic rhinitis. Briefly: phase III multicenter double-blind 2-week study in pollen-associated (seasonal) allergic rhinitis. It counts as in vivo, human. The following applies: for Incidence of asthenia / Incidence of headache / Incidence of insomnia / Incidence of somnolence / proportion of patients with at least one adverse effect / PDS0 (percentage of days with a maximal symptom score equal to 0), mean / PDS1 (percentage of days with a maximal symptom score inferior or equal to 1), mean: 2-week study; for Mean of maximal 5-symptom scores, Visit 2: control visit one week after visit 1, investigators' 4-point scale 0-3; for global evaluation: patients in categories "Good improvement" and "No more symptoms", grouped: end of 2-week study, capsule morning and evening, 5-point scale; for Mean of maximal 5-symptom scores, Visit 1: enrolment visit, investigators' 4-point scale 0-3; for PDS0 (percentage of days with a maximal symptom score equal to 0), mean / PDS1 (percentage of days with a maximal symptom score inferior or equal to 1), mean: maximal score of five symptoms. The method, then:
as §1, §2, §3, §4, §5, §6
A total of 687 patients enrolled in this 2-week study, their ages ranging from 12 to 67 years. They had to be suffering from pollen-associated allergic rhinitis, with a prick-test or a RAST positive to pollen. […] On enrolment day, the patients had to be experiencing nasal obstruction and at least two of the four following symptoms: sneezing, rhinorrhea, nasal pruritus, ocular pruritus.

In the case of `O=C(O)COCCN1CCN(C(c2ccccc2)c2ccc(Cl)cc2)CC1` (racemic) [Cetirizine, 2-[2-[4-[(4-chlorophenyl)phenylmethyl]-1-piperazinyl]ethoxy]-acetic dihydrochloride], in series [1] (comparison between the three groups), the “sedation, frequency of adverse event” value is listed as “more frequent”. Further, in series [1], the “Mean of maximal 5-symptom scores, Visit 2” value (“Mean … Visit 2” below) is 1.82; the “global evaluation by the investigators: patients in categories "Good improvement" and "No more symptoms", grouped” value amounted to 46%; the “Mean of maximal 5-symptom scores, Visit 1” value (“Mean … Visit 1” below) was 2.66; the “PDS0 (percentage of days with a maximal symptom score equal to 0), mean” value is on record as 6.60%. The “PDS1 (percentage of days with a maximal symptom score inferior or equal to 1), mean” value in series [1] stood at 43.26%. In series [2], the Incidence of asthenia amounted to 4%, the Incidence of headache was 4%, the Incidence of insomnia is reported as 0% and the Incidence of somnolence is recorded as 6%. Besides, in series [2], the “proportion of patients with at least one adverse effect” value was 23%; the “Mean … Visit 2” value was found to be 1.76; the “global evaluation: patients in categories "Good improvement" and "No more symptoms", grouped” value is reported as 56%; the “Mean … Visit 1” value stood at 2.77. Moreover, in series [2], the “PDS0 (percentage of days with a maximal symptom score equal to 0), mean” value is reported as 6.41% and the “PDS1 (percentage of days with a maximal symptom score inferior or equal to 1), mean” value is listed as 39.81%.

`CN[C@@H](C)[C@@H](O)c1ccccc1.Cl` [Pseudoephedrine, (1S,2S)2-methylamino-1-phenylpropan-1-ol hydrochloride]: in series [1], the “Mean … Visit 2” value was determined as 1.81; the “global evaluation by the investigators: patients in categories "Good improvement" and "No more symptoms", grouped” value stood at 48%; the “Mean … Visit 1” value is on record as 2.72; the “PDS0 (percentage of days with a maximal symptom score equal to 0), mean” value is listed as 6.97%. Moreover, the “PDS1 (percentage of days with a maximal symptom score inferior or equal to 1), mean” value in series [1] came to 41.57%. In series [2], the Incidence of asthenia is given as 1%, the Incidence of headache was found to be 7%, the Incidence of insomnia stood at 8.5% and the Incidence of somnolence is listed as 3%. Also, in series [2], the “proportion of patients with at least one adverse effect” value is reported as 30%; the “Mean … Visit 2” value is on record as 1.82; the “global evaluation: patients in categories "Good improvement" and "No more symptoms", grouped” value turned out to be 58%; the “Mean … Visit 1” value turned out to be 2.78. In series [2], the “PDS0 (percentage of days with a maximal symptom score equal to 0), mean” value worked out at 5.44% and the “PDS1 (percentage of days with a maximal symptom score inferior or equal to 1), mean” value is on record as 37.21%.

The values above are taken from US6489329B2, “Pharmaceutical compositions for the treatment of rhinitis” (UCB S.A., priority 1996, dated 2002).
